Data on eight compounds can be found in patent US5541215A, “Heterocycle-substituted benzenemethanamine derivatives” (Janssen Pharmaceutica N.V., priority 1991, dated 1996).

≈ marks a conversion by molar mass, not a printed value.

One data set concerns HIV-1. In words: in-vitro anti-HIV assay: inhibition of HIV-induced cytopathic effect in MT-4 cells (MTT). It is filed as cell-based. To be noted: for SI (selectivity index, ratio of CD50 to ED50): CD50/ED50, MT-4 cells; for EC50: Human immunodeficiency virus 1, MT4, read-out: ED50 (50% effective dose). Here is the method:
(§1) A rapid, sensitive and automated assay procedure was used for the in-vitro evaluation of anti-HIV agents. An […] T4-cell line, MT-4, which was previously shown Koyanagi et al., Int. J. Cancer, , 36, 445-451, 1985) to be highly susceptible to and permissive for HIV infection, served as the target cell line. Inhibition of the HIV-induced cytopathic effect was used as the end point. The viability of both HIV- and mock-infected cells was assessed spectrophotometrically via the in-situ reduction of 3-(4,5-dimethylthiazol-2-yl)-2,5-diphenyltetrazolium bromide (MTT). The 50% cytotoxic dose (CD50 in μg/ml) was defined as the concentration of compound that reduced the absorbance of the mock-infectedcontrol sample by 50%. The percent protection achieved by the compound in HIV-infected cells was calculated by the following formula: [formula] whereby (ODT)HIV is the optical density measured with a given concentration of the test compound in HIV-infected cells; (ODC)HIV is the optical density measured for the control untreated HIV-infected cells; (ODC)MOCK is the optical density means for the control untreated mock-infected cells; all optical density values were determined at 540 nm. The dose achieving 50% protection according to the above formula was defined as the 50% effective dose […]). The ratio of CD50 to ED50 was defined as the selectivity index (SI).
In general terms: Damage to the host cells serves as the signal in cytopathic effect assays.

A further data set can be described thus: in vitro. As to conditions: human, mt-4 cells. Type of data set: cell-based. As to the method:
as §1

What is called CC50 is the concentration at which the toxic effect on the cells reaches its halfway point. A high value points to better tolerance by the cells. Turning to `NC(=O)C(Nc1ncccc1[N+](=O)[O-])c1c(Cl)cccc1Cl` (racemic) [compound 1, (±)-2,6-dichloro-α-[(3-nitro-2-pyridinyl)amino]benzeneacetamide], in the data set on HIV-1, the “SI (selectivity index, ratio of CD50 to ED50)” value was found to be 1299 and the EC50 amounted to 0.03 mg/L (≈ 0.0879 µM). The same compound returned a CC50 in the data set “in vitro” of 35.8 mg/L (≈ 105 µM).

On to `NC(=O)C(Nc1ccc[nH]c1=O)c1c(Cl)cccc1Cl` (racemic) [compound 8, (±)-2,6-dichloro-α-[(1,2-dihydro-2-oxo-3-pyridinyl)amino]benzeneacetamide], for which, in the data set with HIV-1, the “SI (selectivity index, ratio of CD50 to ED50)” value was 1181 and the EC50 is 0.18 mg/L (≈ 0.577 µM). In the data set “in vitro”, this compound displayed a CC50 of 217 mg/L (≈ 696 µM).

`CC(=O)c1cccnc1NC(C)c1c(Cl)cccc1Cl` (racemic) [compound 11, (±)-1-[2-[[1-(2,6-dichlorophenyl)ethyl]amino]-3-pyridinyl]ethanone]: in the data set with HIV-1, the “SI (selectivity index, ratio of CD50 to ED50)” value was 463 and the EC50 was found to be 0.068 mg/L (≈ 0.22 µM). The compound also yielded a CC50 in the data set “in vitro” of 31.4 mg/L (≈ 102 µM).

Take `N#Cc1cccnc1NC(C(N)=O)c1c(Cl)cccc1Cl` (stereo not drawn) [compound 2]: in the data set on HIV-1, the “SI (selectivity index, ratio of CD50 to ED50)” value came out at 243 and the EC50 came out at 0.1 mg/L (≈ 0.311 µM). The midpoint of cytotoxicity in “in vitro”, the CC50, lay at 25.3 mg/L (≈ 78.8 µM).

Consider `CCn1nc(C)c([N+](=O)[O-])c1NC(C(N)=O)c1c(Cl)cccc1Cl` (stereo not drawn) [compound 3], for which, in the data set on HIV-1, the “SI (selectivity index, ratio of CD50 to ED50)” value is given as 61 and the EC50 is 2 mg/L (≈ 5.37 µM). Also, the CC50 in “in vitro” was determined as 122 mg/L (≈ 327 µM).

As for `CC(=O)c1nccnc1NC(C(N)=O)c1c(Cl)cccc1Cl` (stereo not drawn) [compound 7], in the data set on HIV-1, the “SI (selectivity index, ratio of CD50 to ED50)” value came out at 41.5 and the EC50 amounted to 3.8 mg/L (≈ 11.2 µM). Besides, the CC50 in “in vitro” is 157 mg/L (≈ 462 µM).

In the case of `CC(=O)c1nccnc1NC(C)c1c(Cl)cccc1Cl` (stereo not drawn) [compound 12], in the data set on HIV-1, the “SI (selectivity index, ratio of CD50 to ED50)” value is given as 289 and the EC50 came to 0.013 mg/L (≈ 0.0419 µM). This compound also came in with a CC50 in the data set “in vitro” of 3.82 mg/L (≈ 12.3 µM).

For `CC(Nc1ncccc1[N+](=O)[O-])c1c(Cl)cccc1Cl` (stereo not drawn) [compound 13], in the data set on HIV-1, the “SI (selectivity index, ratio of CD50 to ED50)” value was determined as 33 and the EC50 worked out at 0.0073 mg/L (≈ 0.0234 µM). In the data set “in vitro”, this compound had a CC50 of 0.24 mg/L (≈ 0.769 µM).
